Measurements: ChEMBL document CHEMBL4376892, “Identification of Parthenolide Dimers as Activators of Pyruvate Kinase M2 in Xenografts of Glioblastoma Multiforme in Vivo” (J Med Chem, 2020)
Structures can show the parent of a compound that is named as a salt. One block for each molecule: values may come before it.

Assays:
[1] = Antiproliferative activity against human SHG44 cells assessed as reduction in cell viability after 72 hrs by MTT assay; assay type: functional, cell-based; settings: SHG-44, 72 h
[2] = tested on: C6; assay: Antiproliferative activity against rat C6 cells assessed as reduction in cell viability after 72 hrs by MTT assay; assay type: functional, cell-based; settings: C6, 72 h
[3] = tested on: NIH3T3; assay: Cytotoxicity against mouse 3T3 cells assessed as reduction in cell viability after 72 hrs by MTT assay; assay type: cell-based; settings: NIH3T3, 72 h
[4] = tested on: U-251; assay: Antiproliferative activity against human U251 cells assessed as reduction in cell viability after 72 hrs by MTT assay; assay type: functional, cell-based; settings: U-251, 72 h
[5] = biological target: T1, Pyruvate kinase PKM (Homo sapiens, UniProt P14618); assay: Activation of recombinant human N-terminal 6His-tagged PKM2 expressed in Escherichia coli BL21 cells after 50 mins by fluorescence based analysis
Target sequence in this assay (P14618 whole entry): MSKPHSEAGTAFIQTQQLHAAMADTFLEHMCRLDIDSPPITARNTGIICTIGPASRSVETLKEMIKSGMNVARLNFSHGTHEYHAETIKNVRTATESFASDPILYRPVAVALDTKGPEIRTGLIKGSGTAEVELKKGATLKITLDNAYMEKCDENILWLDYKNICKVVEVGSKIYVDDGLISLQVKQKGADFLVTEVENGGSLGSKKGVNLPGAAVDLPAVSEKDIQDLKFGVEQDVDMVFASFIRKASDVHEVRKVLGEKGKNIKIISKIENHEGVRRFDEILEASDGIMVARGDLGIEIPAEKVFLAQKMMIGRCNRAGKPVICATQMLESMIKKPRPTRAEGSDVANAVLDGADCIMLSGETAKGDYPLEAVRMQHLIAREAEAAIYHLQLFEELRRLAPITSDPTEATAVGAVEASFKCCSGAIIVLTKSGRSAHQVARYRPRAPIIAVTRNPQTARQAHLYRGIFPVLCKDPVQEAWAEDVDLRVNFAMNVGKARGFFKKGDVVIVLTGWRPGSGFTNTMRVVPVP

[6] = tested on: SF-126; assay: Antiproliferative activity against human SF126 cells assessed as reduction in cell viability after 72 hrs by MTT assay; assay type: functional, cell-based; settings: SF-126, 72 h
[7] = tested on: U-87 MG; assay: Antiproliferative activity against human U87 cells assessed as reduction in cell viability after 72 hrs by MTT assay; assay type: functional, cell-based, U-87MG ATCC
[8] = tested on: U-118-MG; assay: Antiproliferative activity against human U118MG cells assessed as reduction in cell viability after 72 hrs by MTT assay; assay type: functional, cell-based
[9] = biological target: T1, Pyruvate kinase PKM; assay: Activation of recombinant human N-terminal 6His-tagged PKM2 expressed in Escherichia coli BL21 cells at 10 uM after 30 mins by fluorescence based analysis relative to control
Target sequence in this assay (P14618 2-531 limits assumed): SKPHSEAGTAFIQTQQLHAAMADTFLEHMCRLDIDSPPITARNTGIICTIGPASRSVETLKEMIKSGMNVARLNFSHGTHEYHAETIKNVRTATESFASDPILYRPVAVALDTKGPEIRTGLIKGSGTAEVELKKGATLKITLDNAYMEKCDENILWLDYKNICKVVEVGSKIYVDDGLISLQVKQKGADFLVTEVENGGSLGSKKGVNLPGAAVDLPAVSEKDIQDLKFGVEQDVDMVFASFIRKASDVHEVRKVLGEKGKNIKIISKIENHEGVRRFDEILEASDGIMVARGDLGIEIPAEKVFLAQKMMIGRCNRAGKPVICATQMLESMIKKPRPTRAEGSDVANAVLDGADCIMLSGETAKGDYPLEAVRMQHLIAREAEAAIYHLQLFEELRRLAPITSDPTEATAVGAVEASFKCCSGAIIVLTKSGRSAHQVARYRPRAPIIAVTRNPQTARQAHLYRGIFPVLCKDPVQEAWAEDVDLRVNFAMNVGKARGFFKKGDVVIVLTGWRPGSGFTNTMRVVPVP

IC50 [4]: 9.59 µM | AC50 [5]: 0.052 µM | IC50 [7]: 3.09 µM | fold change (FC) [9]: > 2
Structure (SMILES): C=C1C(=O)O[C@H]2[C@H]1CC/C(C(=O)OCCOCCOCCOC(=O)/C1=C/CC[C@@]3(C)O[C@H]3[C@H]3OC(=O)C(=C)[C@@H]3CC1)=C\CC[C@@]1(C)O[C@@H]21
IC50 [1]: 10.5 µM | IC50 [2]: 1.59 µM | IC50 [3]: 7.86 µM | IC50 [6]: 10.2 µM | IC50 [8]: 2.87 µM

IC50 [4]: 65.4 µM | IC50 [7]: 86.3 µM
Structure (SMILES): Cn1c2cc([S+](C)[O-])sc2c2cnn(Cc3cccc(N)c3)c(=O)c21 (stereo not given)
IC50 [1]: 49 µM | IC50 [2]: 81.8 µM | IC50 [3]: 56.6 µM | IC50 [6]: 89 µM | IC50 [8]: 85 µM

IC50 [4]: > 50 µM | IC50 [7]: > 50 µM | fold change (FC) [9]: > 2
Structure (SMILES): C=C1C(=O)O[C@H]2[C@H]1CC/C(C(=O)OCCOCCOCCOCCOCCOCCOCCOCCOCCOCCOCCOCCOCCOCCOCCOCCOCCOCCOCCOCCOC(=O)/C1=C/CC[C@@]3(C)O[C@H]3[C@H]3OC(=O)C(=C)[C@@H]3CC1)=C\CC[C@@]1(C)O[C@@H]21
IC50 [1]: > 50 µM | IC50 [2]: > 50 µM | IC50 [3]: > 50 µM | IC50 [6]: > 50 µM | IC50 [8]: > 50 µM

IC50 [4]: 48 µM | IC50 [7]: 0.15 µM
Structure (SMILES): COc1cccc2c1C(=O)c1c(O)c3c(c(O)c1C2=O)C[C@@](O)(C(=O)CO)C[C@@H]3O[C@H]1C[C@H](N)[C@H](O)[C@H](C)O1 [DOXORUBICIN HYDROCHLORIDE]
IC50 [1]: 1.84 µM | IC50 [2]: 0.06 µM | IC50 [3]: 0.34 µM | IC50 [6]: 0.26 µM | IC50 [8]: 0.09 µM

The next lines start with the molecule.

Structure (SMILES): C=C1C(=O)O[C@H]2[C@H]1CC/C(C(=O)OCCOCCOCCOCCOCCOCCOCCOCCOCCOCCOC(=O)/C1=C/CC[C@@]3(C)O[C@H]3[C@H]3OC(=O)C(=C)[C@@H]3CC1)=C\CC[C@@]1(C)O[C@@H]21
IC50 [1]: 24.5 µM | IC50 [2]: 14.2 µM | IC50 [3]: > 50 µM | IC50 [4]: 23.3 µM | IC50 [6]: 23.1 µM | IC50 [7]: > 50 µM | IC50 [8]: 18.7 µM | fold change (FC) [9]: > 2

Structure (SMILES): C=C1C(=O)O[C@H]2[C@H]1CC/C(C(=O)OCCOCCOCCOCCOCCOCCOCCOCCOCCOCCOCCOCCOC(=O)/C1=C/CC[C@@]3(C)O[C@H]3[C@H]3OC(=O)C(=C)[C@@H]3CC1)=C\CC[C@@]1(C)O[C@@H]21
IC50 [1]: 50.1 µM | IC50 [2]: > 50 µM | IC50 [3]: > 50 µM | IC50 [4]: > 50 µM | IC50 [6]: > 50 µM | IC50 [7]: 16.2 µM | IC50 [8]: 17.4 µM | fold change (FC) [9]: > 2

Structure (SMILES): C=C1C(=O)O[C@H]2[C@H]1CC/C(C(=O)OCCOCCOCCOCCOCCOCCOCCOCCOCCOCCOCCOCCOCCOCCOCCOCCOCCOCCOC(=O)/C1=C/CC[C@@]3(C)O[C@H]3[C@H]3OC(=O)C(=C)[C@@H]3CC1)=C\CC[C@@]1(C)O[C@@H]21
IC50 [1]: > 50 µM | IC50 [2]: > 50 µM | IC50 [3]: > 50 µM | IC50 [4]: > 50 µM | IC50 [6]: > 50 µM | IC50 [7]: > 50 µM | IC50 [8]: > 50 µM | fold change (FC) [9]: > 2
